Results from US7160684B2, “Methods of selecting compounds for modulation of bladder function” (Wyeth, priority 2000, dated 2007).

Test system: isolated rat bladder smooth muscle cell
Assay: Current clamp recording of resting membrane potential, rat cells
Assay type: cell-based
Conditions: 10 μM retigabine
Description: Rat detrusor cells are isolated in a manner previously described for guinea-pig detrusor (Sheldon J H, Norton N W and Argentieri T M (1997) Inhibition of guinea pig detrusor contraction by NS-1619 is associated with activation of BKCa and inhibition of calcium currents. J Pharmacol Exp Thera 283(3): 1193–1200). Male Sprague-Dawley rats (Charles River, Wilmington, Mass.; 200–400 grams) are euthanized by CO2 inhalation and exsanguination. Their urinary bladders are rapidly removed and placed in 37° C. physiological solution with the following composition (mM): Na glutamate (80.0), NaCl (54.7), KCl (5.0), NaHCO3 (25.0), MgCl2.2H2O (2.5), D-glucose (11.8) and CaCl2 (0.2) gassed with O2—CO2, 95%/5% for a final pH of 7.4. The dome of the bladder is isolated from the trigone region and the mucosa is removed. This tissue is then cut into 2–3 mm wide strips and placed into fresh buffer for 1 hour. Tissues are then transferred into 10 ml of an isolation buffer containing the above composition plus collagenase type VIII (1.0 mg/ml) and pronase (0.25 mg/ml). After 10 minutes the isolation buffer is replaced with fresh isolation buffer for an additional 10 min. The tissue is then washed 3 times in fresh collagenase and pronase free solution and stored at room temperature until studied. Cells for study are prepared by triturating 1–2 pieces of detrusor tissue in 2 ml of fresh isolation buffer for 5 minutes with a polished Pasteur pipette, (tip diameter ˜1.5 mm) attached to a modified Harvard Respirator pump (Harvard Apparatus, Southnatic, Mass.) at a rate of 20×/min. with an approximate volume of 5 ml. Cells are then placed on a microscope stage in a temperature regulated tissue bath at 32.5° C. and continually superfused with PSS.
Single cell recordings are performed with a List-Medical EPC-7 patch clamp amplifier (Adams & List Assoc., Westbury, N.Y.). Pipette electrodes had tip resistances of 2–4 MΩ and are filled with the following composition (mM): KCl (126.0), MgCl2.6H2O (4.5), ATP Mg salt (4.0), GTP tris salt (0.3), creatine PO4 (14.0), D-glucose (9.0), EGTA (9.0), HEPES (9.0). The pH is adjusted to 7.4 with KOH. Signals are acquired (3 kHz high frequency cut-off, 12 bit resolution) using a 586-based personal computer.
Cell resting membrane potential (RMP) is measured in current clamp using the above mentioned instrumentation and pipette solutions. For these experiments nystatin is also added to the pipette solution (100 μg/ml) to allow recording through utilization of the perforated patch technique (Korn, et al, 1991). […] After this time, various antagonists (linopirdine, XE-991) are added to the perfusate and RMP is recorded for an additional 5 minutes. […]

CCOC(=O)Nc1ccc(NCc2ccc(F)cc2)cc1N [retigabine, N-[2-amino-4-(4-fluorobenzylamino)-phenyl]carbamic acid ethyl ester]
hyperpolarization of the cell (RMP −40 mV before exposure, single tracing FIG. 3a): approximately 10 mV
resting membrane potential (RMP) after exposure (control RMP −29.0±4.5 mV, n=3): −43.0±3.5 mV
